# According to PubChem BioAssay AID1963828 (Molecular Pharmacology Branch, DTP, NCI, 2024):
# pIC50: −log10 of the molar value.
# System: 991263-137-R1-J2-PDC complex spheroid viability
# Experiment: Anticancer human tumor 991263-137-R1-J2-PDC patient-derived colon adenocarcinoma cell line growth inhibition [POLQ]
# Conditions: for pIC50: curve of first compound; for viability, T/C: stronger effect = lower value
# Protocol: Multicellular complex tumor spheroid response to Polymerase (POL) inhibitors (novobiocin, ART-558, RP6685) in combination with a variety of drugs and investigational agents in selected tumor cell lines
# The POL inhibitors (novobiocin, ART-558, and RP6685) were evaluated both individually and in combination with standard of care and investigational anticancer small molecules within a complex spheroid model of solid tumors. . Complex spheroids include a stromal component modeled by human endothelial cells (HUVEC) and fibroblasts modeled by human mesenchymal stem cells (MSCs). The concentration ranges selected for each drug and investigational agent were based upon clinically achievable concentrations if the clinical Cmax of the agent was known.
# Compounds. The drugs and investigational agents: novobiocin (NSC847541), ART-558 (NSC835418), RP-6685 (NSC848927), peposertib (NSC802822), ceralasertib (NSC780249), elimusertib (NSC800525), camonsertib (NSC841442), AZD-1390 (NSC803789), olaparib (NSC753686), talazoparib (NSC767125), rucaparib (NSC756644), sotorasib (NSC818433), MRTX-1133 (NSC836407), SN-38 (NSC673596), topotecan (NSC609699), epotoside (NSC141540), doxorubicin (NSC123127), gemcitabine (NSC613327), 5-fluorouracil (NSC19893), paclitaxel (NSC125973), vemurafenib (NSC761431), MSA-2 (NSC828583), SN-011 (NSC837082), adavosertib (NSC754352), prexasertib (NSC758257), carboplatin (NSC241240) and oxaliplatin (NSC266046), were obtained from the National Cancer Institute (NCI) Developmental Therapeutics Program Chemical Repository (21). The FDA-approved anticancer drug set is available from the Developmental Therapeutics Program at https://dtp.cancer.gov/organization/dscb/obtaining/. […] The stock solutions were prepared in dimethyl sulfoxide (DMSO, Sigma-Aldrich, St. Louis, MO, cat. D2650), except for the platinum compounds which were prepared in saline (Quality Biological, Gaithersburg, MD, cat. 114-055-101), at 800-fold the tested concentration and stored at -70 degrees C prior to their use. All drugs and investigational agents were tested over a range starting from a high concentration at or near the clinical Cmax and decreasing in half-log increments. If the clinical Cmax for an agent had not been determined, the highest concentration tested was 10 microM, except for SN-38, which was tested at a high concentration of 1 microM.
# Cell Culture. All cells were maintained in an incubator at 37 degrees C and 5% CO2 with 95% humidity. The PDC lines were cultured according to standard operating procedures established by the NCI PDMR (https://pdmr.cancer.gov). Table 3 of the manuscript, lists the cell lines along with the number of the three cell types plated to form the mct-spheroids and media for tumor cell growth. After thawing, all PDC lines, except 997537-175-T-J1-PDC and 415267-285-R-J2-PDC, were cultured in Matrigel-coated flasks prepared with a working solution of 1X Ham's F-12 nutrient mix, without supplementation (Thermo Fisher Scientific, cat. 11765054), 100 U/mL penicillin-streptomycin (Thermo Fisher Scientific, cat. 15140122), and 2.5% Matrigel (Corning Inc., Corning, NY, cat. 354248) for the first three passages. The two PDC lines 997537-175-T-J1-PDC and 415267-285-R-J2-PDC were cultured on uncoated flasks. The 857933-349-R-J2-PDC line was cultured in 6C/Colon 1B media containing advanced DMEM/F-12 (Thermo Fisher Scientific, cat. 12634028), 10 mM HEPES (Thermo Fisher Scientific, cat. 15630080), 1X GlutaMAX supplement (Thermo Fisher Scientific, cat. 35050061), 0.1 mg/mL primocin (InvivoGen, San Diego, CA, cat. ant-pm-2), 10% defined fetal bovine serum, heat inactivated (HyClone Laboratories Inc., Logan, UT, cat. SH30070.03HI), 50% L-WRN conditioned media (ATCC, cat. CRL-3276), 1.25 mM N-Acetyl-L-cysteine (Sigma-Aldrich, cat. A9165), 10 mM nicotinamide (Sigma-Aldrich, cat. N0636), 1X B-27 supplement (Thermo Fisher Scientific, cat. 17504044), 1X N-2 supplement (Thermo Fisher Scientific, cat. […]
# [1] = second compound 0.0316 µM, first compound 0.0316 µM
# [2] = second compound 0.0316 µM, first compound 0.1 µM
# [3] = second compound 0.0316 µM, first compound 0.316 µM
# [4] = second compound 0.0316 µM, first compound 1 µM
# [5] = second compound 0.0316 µM, first compound 3.16 µM
# [6] = second compound 0.0316 µM, first compound 10 µM
# [7] = second compound 0.1 µM, first compound 0.0316 µM
# [8] = second compound 0.1 µM, first compound 0.1 µM
# [9] = second compound 0.1 µM, first compound 0.316 µM
# [10] = second compound 0.1 µM, first compound 1 µM
# [11] = second compound 0.1 µM, first compound 3.16 µM
# [12] = second compound 0.1 µM, first compound 10 µM
# [13] = second compound 0.316 µM, first compound 0.0316 µM
# [14] = second compound 0.316 µM, first compound 0.1 µM
# [15] = second compound 0.316 µM, first compound 0.316 µM
# [16] = second compound 0.316 µM, first compound 1 µM
# [17] = second compound 0.316 µM, first compound 3.16 µM
# [18] = second compound 0.316 µM, first compound 10 µM
# [19] = second compound 1 µM, first compound 0.0316 µM
# [20] = second compound 1 µM, first compound 0.1 µM
# [21] = second compound 1 µM, first compound 0.316 µM
# [22] = second compound 1 µM, first compound 1 µM
# [23] = second compound 1 µM, first compound 3.16 µM
# [24] = second compound 1 µM, first compound 10 µM
# [25] = second compound 3.16 µM, first compound 0.0316 µM
# [26] = second compound 3.16 µM, first compound 0.1 µM
# [27] = second compound 3.16 µM, first compound 0.316 µM
# [28] = second compound 3.16 µM, first compound 1 µM
# [29] = second compound 3.16 µM, first compound 3.16 µM
# [30] = second compound 3.16 µM, first compound 10 µM
# [31] = second compound 10 µM, first compound 0.0316 µM
# [32] = second compound 10 µM, first compound 0.1 µM
# [33] = second compound 10 µM, first compound 0.316 µM
# [34] = second compound 10 µM, first compound 1 µM
# [35] = second compound 10 µM, first compound 3.16 µM
# [36] = second compound 10 µM, first compound 10 µM
# 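Also: spheroids exposed to compounds for 7 days before readout.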
# 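For viability, T/C in this document: 100% = DMSO vehicle control viability.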
compound,measurement,setting,value
CC(C)n1c(=O)n(C)c2cnc3cc(F)c(-c4ccc(OCCCN5CCCCC5)nc4)cc3c21 + Cc1cccc(N(C)C(=O)C2C(O)CCN2c2nc(C)cc(C(F)(F)F)c2C#N)c1,pIC50,second compound 0.0316 µM,< 5.00
same,pIC50,second compound 0.1 µM,< 5.00
same,pIC50,second compound 0.316 µM,< 5.00
same,pIC50,second compound 1 µM,< 5.00
same,pIC50,second compound 3.16 µM,< 5.00
same,pIC50,second compound 10 µM,< 5.00
same,"viability, T/C",[1],98.9%
same,"viability, T/C",[2],97.1%
same,"viability, T/C",[3],99.3%
same,"viability, T/C",[4],90.9%
same,"viability, T/C",[5],98.3%
same,"viability, T/C",[6],83.9%
same,"viability, T/C",[7],96.6%
same,"viability, T/C",[8],99.9%
same,"viability, T/C",[9],115%
same,"viability, T/C",[10],90.7%
same,"viability, T/C",[11],74%
same,"viability, T/C",[12],79%
same,"viability, T/C",[13],83.8%
same,"viability, T/C",[14],101%
same,"viability, T/C",[15],102%
same,"viability, T/C",[16],106%
same,"viability, T/C",[17],109%
same,"viability, T/C",[18],80.4%
same,"viability, T/C",[19],92.1%
same,"viability, T/C",[20],99.5%
same,"viability, T/C",[21],116%
same,"viability, T/C",[22],90.8%
same,"viability, T/C",[23],99.1%
same,"viability, T/C",[24],81.2%
same,"viability, T/C",[25],85.9%
same,"viability, T/C",[26],98.3%
same,"viability, T/C",[27],90.2%
same,"viability, T/C",[28],101%
same,"viability, T/C",[29],109%
same,"viability, T/C",[30],61.3%
same,"viability, T/C",[31],82%
same,"viability, T/C",[32],104%
same,"viability, T/C",[33],86.7%
same,"viability, T/C",[34],80.1%
same,"viability, T/C",[35],111%
same,"viability, T/C",[36],67.2%
COc1cc2cc(C(=O)CCC(=O)O)sc2cc1OC + Cc1cccc(N(C)C(=O)C2C(O)CCN2c2nc(C)cc(C(F)(F)F)c2C#N)c1,pIC50,second compound 0.0316 µM,< 5.00
same,pIC50,second compound 0.1 µM,< 5.00
same,pIC50,second compound 0.316 µM,< 5.00
same,pIC50,second compound 1 µM,< 5.00
same,pIC50,second compound 3.16 µM,< 5.00
same,pIC50,second compound 10 µM,< 5.00
same,"viability, T/C",[1],100%
same,"viability, T/C",[2],103%
same,"viability, T/C",[3],99.8%
same,"viability, T/C",[4],95.8%
same,"viability, T/C",[5],102%
same,"viability, T/C",[6],81.8%
same,"viability, T/C",[7],91.5%
same,"viability, T/C",[8],88.8%
same,"viability, T/C",[9],95.4%
same,"viability, T/C",[10],93.6%
same,"viability, T/C",[11],95.7%
same,"viability, T/C",[12],77%
same,"viability, T/C",[13],102%
same,"viability, T/C",[14],92.8%
same,"viability, T/C",[15],101%
same,"viability, T/C",[16],102%
same,"viability, T/C",[17],97.4%
same,"viability, T/C",[18],71.2%
same,"viability, T/C",[19],91.2%
same,"viability, T/C",[20],103%
same,"viability, T/C",[21],91.5%
same,"viability, T/C",[22],88%
same,"viability, T/C",[23],108%
same,"viability, T/C",[24],74.2%
same,"viability, T/C",[25],87.8%
same,"viability, T/C",[26],94.1%
same,"viability, T/C",[27],90.3%
same,"viability, T/C",[28],110%
same,"viability, T/C",[29],87.2%
same,"viability, T/C",[30],80%
same,"viability, T/C",[31],86%
same,"viability, T/C",[32],97.5%
same,"viability, T/C",[33],97.9%
same,"viability, T/C",[34],101%
same,"viability, T/C",[35],102%
same,"viability, T/C",[36],81%
Nc1ccn(C2OC(CO)C(O)C2(F)F)c(=O)n1 (stereo unspecified) + Cc1cccc(N(C)C(=O)C2C(O)CCN2c2nc(C)cc(C(F)(F)F)c2C#N)c1,pIC50,second compound 0.0316 µM,6.06
same,pIC50,second compound 0.1 µM,5.88
same,pIC50,second compound 0.316 µM,5.94
same,pIC50,second compound 1 µM,5.72
same,pIC50,second compound 3.16 µM,5.52
same,pIC50,second compound 10 µM,5.69
same,"viability, T/C",[1],85.6%
same,"viability, T/C",[2],74.6%
same,"viability, T/C",[3],57.2%
same,"viability, T/C",[4],48%
same,"viability, T/C",[5],52.4%
same,"viability, T/C",[6],42.4%
same,"viability, T/C",[7],99.4%
same,"viability, T/C",[8],66.4%
same,"viability, T/C",[9],60.6%
same,"viability, T/C",[10],62.4%
same,"viability, T/C",[11],40.3%
same,"viability, T/C",[12],41.5%
same,"viability, T/C",[13],82.6%
same,"viability, T/C",[14],70.5%
same,"viability, T/C",[15],54.9%
same,"viability, T/C",[16],52.6%
same,"viability, T/C",[17],48.4%
same,"viability, T/C",[18],38.5%
same,"viability, T/C",[19],75.6%
same,"viability, T/C",[20],63.8%
same,"viability, T/C",[21],53.1%
same,"viability, T/C",[22],50%
same,"viability, T/C",[23],53.6%
same,"viability, T/C",[24],46%
same,"viability, T/C",[25],69.2%
same,"viability, T/C",[26],64.2%
same,"viability, T/C",[27],54.7%
same,"viability, T/C",[28],54%
same,"viability, T/C",[29],53.2%
same,"viability, T/C",[30],45%
same,"viability, T/C",[31],80.2%
same,"viability, T/C",[32],70.3%
same,"viability, T/C",[33],63.5%
same,"viability, T/C",[34],49.6%
same,"viability, T/C",[35],51.8%
same,"viability, T/C",[36],41.5%
